Source: the supplement of paper PMC10307832

Assays:
Assay in all cases: relative viability (nuclei count vs DMSO), 5 days (fraction); higher = more cells survive
Zosuquidar + Bortezomib = compound: O[C@@H](COc1cccc2ncccc12)CN1CCN([C@@H]2c3ccccc3[C@@H]3[C@H](c4ccccc42)C3(F)F)CC1 [Zosuquidar] + CC(C)C[C@H](NC(=O)[C@H](Cc1ccccc1)NC(=O)c1cnccn1)B(O)O [Bortezomib] (partner 0.002 µM)
Summary of the method: (§1)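 Relative viability equals treated-well nuclei counts divided by vehicle-well nuclei counts. Counts came from 4× images of lung cancer cell lines grown in 1536-well plates for 5 days after pin-tool dosing on the day after seeding. Dosing used one drug alone or a fixed anchor-drug dose plus five library-drug doses (not always all listed) in √10 steps, and values are medians of duplicate plates.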

[1] = compound: COc1cc2nccc(Oc3ccc(NC(=O)C4(C(=O)Nc5ccc(F)cc5)CC4)cc3)c2cc1OC [Cabozantinib] + Nc1nc2[nH]cc(CCc3ccc(C(=O)N[C@@H](CCC(=O)O)C(=O)O)cc3)c2c(=O)[nH]1 [Pemetrexed] (partner 0.2 µM)
Summary of the method: as §1

Zosuquidar + Tozasertib = compound: O[C@@H](COc1cccc2ncccc12)CN1CCN([C@@H]2c3ccccc3[C@@H]3[C@H](c4ccccc42)C3(F)F)CC1 [Zosuquidar] + Cc1cc(Nc2cc(N3CCN(C)CC3)nc(Sc3ccc(NC(=O)C4CC4)cc3)n2)n[nH]1 [Tozasertib] (partner 0.1 µM)
Summary of the method: as §1

Zosuquidar + Lapatinib = compound: O[C@@H](COc1cccc2ncccc12)CN1CCN([C@@H]2c3ccccc3[C@@H]3[C@H](c4ccccc42)C3(F)F)CC1 [Zosuquidar] + CS(=O)(=O)CCNCc1ccc(-c2ccc3ncnc(Nc4ccc(OCc5cccc(F)c5)c(Cl)c4)c3c2)o1 [Lapatinib] (partner 2 µM)
Summary of the method: as §1

Cell Line	relative viability (Zosuquidar + Bortezomib; first compound 0.01 µM)	relative viability (Zosuquidar + Bortezomib; first compound 0.03162 µM)	relative viability (Zosuquidar + Bortezomib; first compound 0.1 µM)	relative viability (Zosuquidar + Bortezomib; first compound 0.3162 µM)	relative viability (Zosuquidar + Bortezomib; first compound 1 µM)	relative viability ([1]; first compound 0.02 µM)	relative viability ([1]; first compound 0.06325 µM)	relative viability ([1]; first compound 0.2 µM)	relative viability ([1]; first compound 0.6325 µM)	relative viability ([1]; first compound 2 µM)	relative viability (Zosuquidar + Tozasertib; first compound 0.01 µM)	relative viability (Zosuquidar + Tozasertib; first compound 0.03162 µM)	relative viability (Zosuquidar + Tozasertib; first compound 0.1 µM)	relative viability (Zosuquidar + Tozasertib; first compound 0.3162 µM)	relative viability (Zosuquidar + Tozasertib; first compound 1 µM)	relative viability (Zosuquidar + Lapatinib; first compound 0.01 µM)	relative viability (Zosuquidar + Lapatinib; first compound 0.03162 µM)	relative viability (Zosuquidar + Lapatinib; first compound 0.1 µM)	relative viability (Zosuquidar + Lapatinib; first compound 0.3162 µM)	relative viability (Zosuquidar + Lapatinib; first compound 1 µM)
LXF-289	0.993	1.01	1.01	0.99	0.976	0.957	0.953	0.868	0.883	0.897	0.244	0.2	0.179	0.222	0.187	0.876	0.908	0.872	0.913	0.923
BEN	0.928	0.734	0.651	0.882	0.773	0.65	0.914	0.781	0.851	0.698	0.482	0.489	0.503	0.563	0.431	0.79	0.718	0.594	0.825	0.745
LCLC-97TM1	0.433	0.538		0.844	0.464	0.155	0.179	0.181	0.17	0.17	0.202	0.266	0.167	0.208	0.212	1.07	1.13		1.27	0.881
NCI-H1993	1.02	0.99	1.08	1.17	1.11	0.486	0.507	0.484	0.561	0.662	0.564	0.5	0.578	0.595	0.541	0.965	0.908	0.751	1.04	0.79
NCI-H596	0.985	1.09	0.718	1.02	1.01	0.485	0.525	0.487	0.52	0.54	0.877		0.986	1.16	0.905	1.11	1.07	1.08	1.13	1.13
HCC-78	0.582	0.392		0.625	0.428		0.941	0.908	0.926	0.89	0.413	0.329		0.44	0.398	0.866	1.03		0.893	0.572
NCI-H1975	0.362	0.34	0.425	0.437	0.341	0.318	0.273	0.288	0.263	0.289	0.74	0.775	1.01	0.803	0.787	0.796	0.7	0.945	0.991	0.858
